Data taken from PubChem BioAssay AID1963852 (Molecular Pharmacology Branch, DTP, NCI, 2024).

System: 282377-053-R-J1-PDC complex spheroid viability
Assay: Anticancer human tumor 282377-053-R-J1-PDC patient-derived colon adenocarcinoma cell line growth inhibition [POLQ]
Conditions: for IC50: curve of first compound; for viability, T/C: stronger effect = lower value
Procedure, shortened: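 Complex spheroid viability model combining PDC tumour cells with endothelial (HUVEC) and MSC stromal cells. Novobiocin, ART-558 or RP6685 were tested singly and in combination with standard and investigational anticancer drugs. Each was titrated in half-log steps from near clinical Cmax, or from 10 microM where Cmax was unknown.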

[1] = second compound 0.0316 µM, first compound 0.00316 µM
[2] = second compound 0.0316 µM, first compound 0.01 µM
[3] = second compound 0.0316 µM, first compound 0.0316 µM
[4] = second compound 0.0316 µM, first compound 0.1 µM
[5] = second compound 0.0316 µM, first compound 0.316 µM
[6] = second compound 0.0316 µM, first compound 1 µM
[7] = second compound 0.1 µM, first compound 0.00316 µM
[8] = second compound 0.1 µM, first compound 0.01 µM
[9] = second compound 0.1 µM, first compound 0.0316 µM
[10] = second compound 0.1 µM, first compound 0.1 µM
[11] = second compound 0.1 µM, first compound 0.316 µM
[12] = second compound 0.1 µM, first compound 1 µM
[13] = second compound 0.316 µM, first compound 0.00316 µM
[14] = second compound 0.316 µM, first compound 0.01 µM
[15] = second compound 0.316 µM, first compound 0.0316 µM
[16] = second compound 0.316 µM, first compound 0.1 µM
[17] = second compound 0.316 µM, first compound 0.316 µM
[18] = second compound 0.316 µM, first compound 1 µM
[19] = second compound 1 µM, first compound 0.00316 µM
[20] = second compound 1 µM, first compound 0.01 µM
[21] = second compound 1 µM, first compound 0.0316 µM
[22] = second compound 1 µM, first compound 0.1 µM
[23] = second compound 1 µM, first compound 0.316 µM
[24] = second compound 1 µM, first compound 1 µM
[25] = second compound 3.16 µM, first compound 0.00316 µM
[26] = second compound 3.16 µM, first compound 0.01 µM
[27] = second compound 3.16 µM, first compound 0.0316 µM
[28] = second compound 3.16 µM, first compound 0.1 µM
[29] = second compound 3.16 µM, first compound 0.316 µM
[30] = second compound 3.16 µM, first compound 1 µM
[31] = second compound 10 µM, first compound 0.00316 µM
[32] = second compound 10 µM, first compound 0.01 µM
[33] = second compound 10 µM, first compound 0.0316 µM
[34] = second compound 10 µM, first compound 0.1 µM
[35] = second compound 10 µM, first compound 0.316 µM
[36] = second compound 10 µM, first compound 1 µM
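Further: spheroids exposed to compounds for seven days.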
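Wherever viability, T/C is given: 100% = DMSO vehicle control viability.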

Work on C=CCn1c(=O)c2cnc(Nc3ccc(N4CCN(C)CC4)cc3)nc2n1-c1cccc(C(C)(C)O)n1 + Nc1ccc(C#CCN(C(=O)Cc2ncc(C(F)(F)F)cc2C(F)(F)F)c2ccc(F)cc2)nn1 yielded an IC50 (second compound 0.0316 µM) greater than 1000 nM, an IC50 (second compound 0.1 µM) greater than 1000 nM and an IC50 (second compound 0.316 µM) greater than 1000 nM. The IC50 (second compound 1 µM) was greater than 1000 nM, the IC50 (second compound 3.16 µM) was greater than 1000 nM and the IC50 (second compound 10 µM) was greater than 1000 nM. The viability, T/C [1] was 122%, the viability, T/C [2] was 102% and the viability, T/C [3] was 99.1%. It also gave a viability, T/C [4] of 98.3%, a viability, T/C [5] of 81.8% and a viability, T/C [6] of 69%. The viability, T/C [7] was 96.3%, the viability, T/C [8] was 110% and the viability, T/C [9] was 89.4%. It also gave a viability, T/C [10] of 107%, a viability, T/C [11] of 90.7% and a viability, T/C [12] of 70.1%. The viability, T/C [13] was 102%, the viability, T/C [14] was 96.9% and the viability, T/C [15] was 99.2%. It also gave a viability, T/C [16] of 86.1%, a viability, T/C [17] of 91.8% and a viability, T/C [18] of 61.4%. The viability, T/C [19] was 106%, the viability, T/C [20] was 91.8% and the viability, T/C [21] was 79.9%. For the same molecule, the viability, T/C [22] was 86.2%, the viability, T/C [23] was 93.8% and the viability, T/C [24] was 67.6%. For the same molecule, the viability, T/C [25] was 117%, the viability, T/C [26] was 110% and the viability, T/C [27] was 93.8%. For the same molecule, the viability, T/C [28] was 102%, the viability, T/C [29] was 85.3% and the viability, T/C [30] was 84.6%. The viability, T/C [31] was 117%, the viability, T/C [32] was 100% and the viability, T/C [33] was 96.7%. For the same molecule, the viability, T/C [34] was 94.7%, the viability, T/C [35] was 100% and the viability, T/C [36] was 78.2%.

For CC[C@@]1(O)C(=O)OCc2c1cc1n(c2=O)Cc2cc3c(CN(C)C)c(O)ccc3nc2-1 + Nc1ccc(C#CCN(C(=O)Cc2ncc(C(F)(F)F)cc2C(F)(F)F)c2ccc(F)cc2)nn1, the IC50 (second compound 0.0316 µM) was greater than 100 nM, the IC50 (second compound 0.1 µM) was greater than 100 nM and the IC50 (second compound 0.316 µM) was greater than 100 nM. For the same molecule, the IC50 (second compound 1 µM) was greater than 100 nM, the IC50 (second compound 3.16 µM) was greater than 100 nM and the IC50 (second compound 10 µM) was greater than 100 nM. For the same molecule, the viability, T/C (second compound 0.0316 µM, first compound 0.000316 µM) was 117%, the viability, T/C (second compound 0.0316 µM, first compound 0.001 µM) was 90.7% and the viability, T/C [1] was 124%. It also gave a viability, T/C [2] of 103%, a viability, T/C [3] of 96.5% and a viability, T/C [4] of 99.8%. For the same molecule, the viability, T/C (second compound 0.1 µM, first compound 0.000316 µM) was 91.1%, the viability, T/C (second compound 0.1 µM, first compound 0.001 µM) was 99.2% and the viability, T/C [7] was 91%. It also gave a viability, T/C [8] of 94.7%, a viability, T/C [9] of 103% and a viability, T/C [10] of 102%. For the same molecule, the viability, T/C (second compound 0.316 µM, first compound 0.000316 µM) was 97.1%, the viability, T/C (second compound 0.316 µM, first compound 0.001 µM) was 94.8% and the viability, T/C [13] was 91.7%. For the same molecule, the viability, T/C [14] was 79.3%, the viability, T/C [15] was 101% and the viability, T/C [16] was 101%. It also gave a viability, T/C (second compound 1 µM, first compound 0.000316 µM) of 95.2%, a viability, T/C (second compound 1 µM, first compound 0.001 µM) of 88.9% and a viability, T/C [19] of 83%. The viability, T/C [20] was 85%, the viability, T/C [21] was 102% and the viability, T/C [22] was 91.1%. For the same molecule, the viability, T/C (second compound 3.16 µM, first compound 0.000316 µM) was 95.8%, the viability, T/C (second compound 3.16 µM, first compound 0.001 µM) was 95.7% and the viability, T/C [25] was 94.2%. For the same molecule, the viability, T/C [26] was 95.4%, the viability, T/C [27] was 103% and the viability, T/C [28] was 91.8%. For the same molecule, the viability, T/C (second compound 10 µM, first compound 0.000316 µM) was 111%, the viability, T/C (second compound 10 µM, first compound 0.001 µM) was 93.7% and the viability, T/C [31] was 124%. For the same molecule, the viability, T/C [32] was 112%, the viability, T/C [33] was 112% and the viability, T/C [34] was 127%.

Molecule CCc1c2c(nc3ccc(O)cc13)-c1cc3c(c(=O)n1C2)COC(=O)[C@]3(O)CC + Nc1ccc(C#CCN(C(=O)Cc2ncc(C(F)(F)F)cc2C(F)(F)F)c2ccc(F)cc2)nn1 has an IC50 (second compound 0.0316 µM) greater than 1000 nM, an IC50 (second compound 0.1 µM) of 945 nM and an IC50 (second compound 0.316 µM) of 808 nM. The IC50 (second compound 1 µM) was greater than 1000 nM, the IC50 (second compound 3.16 µM) was greater than 1000 nM and the IC50 (second compound 10 µM) was 860 nM. It also gave a viability, T/C [1] of 99.3%, a viability, T/C [2] of 96.8% and a viability, T/C [3] of 80.7%. The viability, T/C [4] was 78.3%, the viability, T/C [5] was 69.9% and the viability, T/C [6] was 58.8%. For the same molecule, the viability, T/C [7] was 92%, the viability, T/C [8] was 84.3% and the viability, T/C [9] was 86%. The viability, T/C [10] was 72.8%, the viability, T/C [11] was 62.9% and the viability, T/C [12] was 49.4%. It also gave a viability, T/C [13] of 101%, a viability, T/C [14] of 92.3% and a viability, T/C [15] of 75.4%. For the same molecule, the viability, T/C [16] was 74.4%, the viability, T/C [17] was 60.4% and the viability, T/C [18] was 46.8%. It also gave a viability, T/C [19] of 107%, a viability, T/C [20] of 91.7% and a viability, T/C [21] of 99.8%. The viability, T/C [22] was 66.9%, the viability, T/C [23] was 61.8% and the viability, T/C [24] was 51.6%. It also gave a viability, T/C [25] of 108%, a viability, T/C [26] of 87.1% and a viability, T/C [27] of 83.8%. For the same molecule, the viability, T/C [28] was 70.6%, the viability, T/C [29] was 60.4% and the viability, T/C [30] was 51.5%. The viability, T/C [31] was 116%, the viability, T/C [32] was 127% and the viability, T/C [33] was 97.1%. The viability, T/C [34] was 80.3%, the viability, T/C [35] was 64.3% and the viability, T/C [36] was 46.4%.
